Data: EP0159194B1, “Iron 3-hydroxypyrone or 3-hydroxypyridone complexes and pharmaceutical compositions containing them” (priority 1984, dated 1985)

Molecular target: apotransferrin (Homo sapiens, UniProt P02787)
Experiment: Donation of iron to apotransferrin (59Fe, Sephadex G10 separation)
Format: biochemical
Details: 5 x 10^-5M apotransferrin, 1 x 10^-4M iron, pH 7.4
Procedure: (Maltol)2 (ascorbic acid) iron(III) was prepared in situ by dissolving maltol and ascorbic acid in a 2:1 molar ratio in an aqueous medium containing morpholine propane sulphonate (MOPS, 25 mM) and sodium hydrogen carbonate (30 mM), the pH being adjusted to 7.4 with hydrochloric acid (50% v/v). To the medium was added a solution of ^59Fe enriched ferric chloride in 0.1 M aqueous hydrochloric acid containing a molar amount of iron equivalent to that of the ascorbic acid. Equal volumes of the solution of the iron complex and of apotransferrin in the same aqueous medium were mixed to provide concentrations in the mixture of 5 x 10-^5M of apotransferrin and 1 x 10-^4M of iron.
The mixture was incubated at room temperature in separate experiments for 10 and 60 minutes and an aliquot was then added to a Sephadex G10 column equilibrated with the same aqueous medium described above and the column eluted with that medium, fractions being collected and counted. The percentages of ^59Fe associated with apotransferrin and with ligands are calculated as cpm iron-apotransferrin/total cpm and cpm iron-(maltol)2 (ascorbic acid)/total cpm.

[1] = after 10 minutes at room temperature
[2] = after 60 minutes at room temperature

Chain of apotransferrin (P02787 20-698): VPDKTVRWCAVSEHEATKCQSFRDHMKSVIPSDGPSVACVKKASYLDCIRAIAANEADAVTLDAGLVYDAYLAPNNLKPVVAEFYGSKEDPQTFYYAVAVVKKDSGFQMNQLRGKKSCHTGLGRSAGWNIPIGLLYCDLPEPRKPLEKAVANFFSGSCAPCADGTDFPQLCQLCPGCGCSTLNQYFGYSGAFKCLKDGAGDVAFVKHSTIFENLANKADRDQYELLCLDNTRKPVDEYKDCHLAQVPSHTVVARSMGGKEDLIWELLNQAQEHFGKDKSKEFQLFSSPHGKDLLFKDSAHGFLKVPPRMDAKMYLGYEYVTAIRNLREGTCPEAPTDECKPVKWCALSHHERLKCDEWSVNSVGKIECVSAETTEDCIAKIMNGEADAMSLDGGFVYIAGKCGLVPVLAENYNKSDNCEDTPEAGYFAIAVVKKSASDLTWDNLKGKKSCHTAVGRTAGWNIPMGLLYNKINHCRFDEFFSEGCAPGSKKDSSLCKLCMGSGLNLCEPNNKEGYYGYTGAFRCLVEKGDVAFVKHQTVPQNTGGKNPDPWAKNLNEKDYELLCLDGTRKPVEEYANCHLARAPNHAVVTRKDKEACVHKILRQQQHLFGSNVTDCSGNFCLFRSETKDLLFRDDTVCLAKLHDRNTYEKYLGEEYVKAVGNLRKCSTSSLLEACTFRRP

59Fe associated with apotransferrin [1]: 43%
59Fe associated with the ligands [1]: 57%
59Fe donated to the apotransferrin [2]: 75%
59Fe remaining associated with the ligands [2]: 25%
Substance: (maltol)2 (ascorbic acid) iron(III) complex
